From patent US10561142B2, “Dispersed lactams” (Conopco, Inc., priority 2015, dated 2020)

Assay: Dissolution of lactam / PVP solid dispersion in water (visual, FIG. 1)
Type: physicochemical
Details: added to water, amount of lactam equivalent to that in the 1% lactam/PVP solid dispersion
Excerpt: The inventor(s) have shown that solid dispersion of lactam in PVP confers enhanced aqueous solubility to the lactam. […] Note that this example is a proof of concept, and the lactam used was 4-(4-fluorophenyl)-5-methylene-pyrrol-2-one.
Such solid dispersions dissolve rapidly to give clear solutions.

C=C1NC(=O)C=C1c1ccc(F)cc1 [4-(4-fluorophenyl)-5-methylene-pyrrol-2-one]
dissolution in water (aqueous solubility): does not dissolve
